Reference: article PMC9007951, “Systematically evaluating DOTATATE and FDG as PET immuno-imaging tracers of cardiovascular inflammation” (Scientific Reports, 2022)
Where two headings read alike, the source gives them in different places.

Tests used:
[1] = test system: Apoe^−/− atherosclerotic mice; test: In vivo PET/CT of vascular inflammation in atherosclerotic mice; conditions: tracer circulated 60 min, median, N = 4
Description: (§1) Animals were housed under a constant room temperature at 25 ± 2 °C and 50 ± 5% humidity with a 12-h daylight period and 12-h darkness period, with free access to water. For the mouse atherosclerosis model, 8-weeks old female Apoe^−/− mice (N = 51) were purchased from Jackson Laboratories (Bar Harbor, ME) and, after a 48 h acclimatization period, were fed a Western Diet (42% Kcal from fat TD88137, Envigo, Huntingdon, UK) for 12 weeks. 16–20 weeks old female C57Bl/6 controls (N = 67) were kept on regular chow diet. The myocardial infarction group consisted 16–20 weeks old female C57Bl/6 mice (N = 18) purchased from Jackson Laboratories and subjected to ligation of the left anterior descending artery, as previously described.
(§2) For the PET/CT experiments, mice were fasted for 12 h before radiotracer injection and anesthetized with xylazine (10 mg/kg) and ketamine (100 mg/kg) through intraperitoneal injection prior to radiotracer administration. Subsequently they were injected via the lateral tail vein with approximately 22.2 MBq of [^18F]F-FDG or 5.55 MBq of [^64Cu]Cu-DOTATATE. Tracers were allowed to circulate for 60 min. Immediately before imaging, mice were placed under 1% isoflurane (BaxterHealthcare, Deerfield, IL), and subsequently imaged on a high resolution (700 µm) Mediso nanoScan PET/CT scanner (Mediso, Budapest, Hungary). CT scan was acquired at 50 kVp and 300 ms exposure per projection. eXIA160 (Binitio, Ontario, Canada) was used as a contrast agent to improve imaging of the vasculature by intravenous administration of 100 μl per mouse 5 min prior to CT acquisition. PET acquisition time was 40 min. Reconstruction was performed using TeraTomo 3D reconstruction engine, for 8 iterations and 6 subsets per iteration for both tracers. The voxel size was isotropic at 0.3 mm. Immediately after the PET/CT scan, animals were euthanized for ex vivo assays.
(§3) Using OsiriX v5.6 software (OsiriX Foundation, Geneva, Switzerland), regions of interest (ROIs) were drawn to determine organ radioactivity concentration. In mice, for healthy and infarcted myocardium, ROIs were traced manually in the apex of the heart in the axial view. For remote myocardium, analysis was performed in myocardium 180° from the infarcted zone. In the mice aorta, sequential ROIs were drawn in the ascending aorta based on consecutive tomographic (CT) slices beginning from the root up to the brachiocephalic branch, merging point with the aortic arch. Voxel counts were converted to maximum standardized uptake values (SUVmax). In rabbits, PET images were fused with time-of-flight bright blood MRI angiography and ROIs were manually drawn on the infrarenal abdominal aorta in TOF images. The slice-by-slice maximum standard uptake values (SUVmax) were averaged across the whole aorta. […]

[2] = as above; conditions: female, mouse, ascending aorta, iv, 5.55 MBq, total radioactivity, tracer circulated 60 min, median, N = 4, read-out: SUVmax ascending aorta
Description: as §1, §2, §3

[3] = Blood half-life of [^64Cu]Cu-DOTATATE, gamma counting of blood, two-phase decay fit; assay type: in vivo, mice; conditions: for %fast: two-phase decay fit of blood radioactivity over 120 min; for %slow / Weighed t1/2 (weighted blood half-life) / t1/2 fast / t1/2 slow: two-phase decay fit
Description: Wild-type and atherosclerotic animals were injected with approximately 1.85 MBq of [^64Cu]Cu-DOTATATE and euthanized at either 1, 5, 15, 30, 60 or 120 min after injection (Supplementary Fig. S1A) to evaluate the tracer’s biodistribution. After euthanasia, an insulin syringe was used to collect blood samples from the right ventricle. Blood samples were used for the establishment of pharmacokinetics profile. Mice were then perfused with 20 mL of phosphate-buffered saline (PBS) and tissues of interest (heart, aorta, bone marrow, spleen, liver, stomach, bladder, kidneys, intestines, lungs, adrenal gland, muscles and pancreas) were harvested. Tissues were blotted for gamma counting on a Wizard2 2480 automatic gamma counter (Perkin Elmer, Waltham, MA). Values were corrected for decay and normalized to tissue weight to express radioactivity concentration as percentage injected dose per gram (%ID/g). […] To investigate the tracer’s distribution within different blood compartments, after gamma counting, 100 μL of blood were spun down at 2000 g for 15 min at 4 °C. Plasma (supernatant) and cells (pellet) were gamma counted and expressed as percentage of total activity. The remainder of the blood was separated using Lymphoprep density gradient medium (Nycomed Pharma, Zurich, Switzerland) following manufacturer’s instructions. Percentage of activity in mononuclear and polynuclear cells was calculated.

[4] = Apoe^−/− mice 12 weeks on Western Diet

SMILES | SUVmax ascending aorta [1, 4] | SUVmax ascending aorta ([1]; healthy C57Bl/6 control mice) | SUV at 1 h [2, 4] [SUV] | SUV at 1 h ([2]; healthy C57Bl/6 control mice) [SUV] | %fast ([3]; Apoe^-/- mice, N = 6) [%] | %slow ([3]; Apoe^-/- mice, N = 6) [%] | Weighed t1/2 (weighted blood half-life) ([3]; Apoe^-/- mice, N = 6) [min] | t1/2 fast ([3]; Apoe^-/- mice, N = 6) [min] | t1/2 slow ([3]; Apoe^-/- mice, N = 6) [min] | %fast ([3]; C57Bl/6 mice, N = 7) [%] | %slow ([3]; C57Bl/6 mice, N = 7) [%] | Weighed t1/2 (weighted blood half-life) ([3]; C57Bl/6 mice, N = 7) [min] | t1/2 fast ([3]; C57Bl/6 mice, N = 7) [min] | t1/2 slow ([3]; C57Bl/6 mice, N = 7) [min]
OC[C@H]1OC(O)[C@H]([18F])[C@@H](O)[C@@H]1O (some centres unmarked) [[^18F]F-FDG, [^18F]F-fluorodeoxyglucose] | 1.2 | 1.7 |  |  |  |  |  |  |  |  |  |  |  | 
C[C@@H](O)[C@H](NC(=O)[C@@H]1CSSC[C@H](NC(=O)[C@@H](Cc2ccccc2)NC(=O)CN2CCN(CC(=O)O)CCN(CC(=O)O)CCN(CC(=O)O)CC2)C(=O)N[C@@H](Cc2ccc(O)cc2)C(=O)N[C@H](Cc2c[nH]c3ccccc23)C(=O)N[C@@H](CCCCN)C(=O)N[C@@H]([C@@H](C)O)C(=O)N1)C(=O)O [[^64Cu]Cu-DOTATATE, metal not drawn] |  |  | 1.1 | 0.5 | 11.27 | 88.73 | 6.83 | 0.557 | 7.627 | 79.14 | 20.86 | 4.83 | 1.939 | 15.81
